Key:
Format in all cases: physicochemical
[1] = Visual observation of the cyclodextrin-free CFZ-API sample formulation (FIG. 1); settings: CFZ-API 2 mg/ml in water in the presence of phosphate buffer solution (PBS)
From the text: FIG. 1 illustrates a visual comparison of carfilzomib active ingredient in (a) water, (b) cyclodextrin (CAPTISOL®) and cyclodextrin-free formulation of the present invention
Carfilzomib (CFZ) is a proteasomal inhibitor and active ingredient of KYPROLIS®, a lyophilized drug product which is for the treatment of multiple myeloma. The current commercial formulation of KYPROLIS contains CAPTISOL®, which is a cyclodextrin used to help solubility the CFZ-API. The present invention provides a stable, cyclodextrin-free formulations for CFZ-API in an aqueous solution which is suitable for injection. FIG. 1 illustrates (a) insoluble CFZ-API in water in the presence of phosphate buffer solution (PBS) (left vial); (b) current commercial KYPROLIS formulation containing CAPTISOL (middle vial); and (c) the cyclodextrin free formulation of the invention (right vial). Each sample contains CFZ-API concentration of 2 mg/ml.

[2] = Lyophilization and bulking agent screening
Protocol: 1 mL CFZ-API liquid formulation fill as prepared above in 3 mL Schott 1A glass vial was loaded into a VirTis Genesis 12 EL lyophilizer (TS Systems LyoStar™-3, SP Scientific, Warminster, PA). The lyophilization cycle used for screening bulking agents consisted of holding shelf temperature at 4° C. for 30 minutes then cooling the shelf to −45° C. at 0.2° C./min. The annealing step was then performed at from −45° C. to −12° C. at 0.3° C./min. The primary drying and secondary drying shelf temperatures were −25° C. and 25° C., respectively. The heating rate applied to the primary and secondary drying were 0.2° C./min and 0.1° C./min, respectively.
Table 5 describes the initial lyophilization study results of formulations containing bulking agents such as PVP 12,000 MW, mannitol, or glycine pre and post lyophilization. PVP was selected as a co-solubilizing agent candidate because of high solubility of CFZ-API in PVP pre and post lyophilization as discussed above. […]
Results from the lyophilization and bulking agent screening produced mostly poor lyophilized cakes, however two selected bulking agent provided cakes that looked better in overall drug product presentation. […] The CFZ-API recovery of 1.8 mg/ml was lower than the expected of 2 mg/ml possibly due to the other components of the powder absorbing the water, making it more dilute than theoretically measured.

[3] = Organic water miscible solvent screening to dissolve CFZ-API at high concentration; settings: in NMP and DMSO
Protocol: Non-aqueous phase: (a) 200 mg/ml to 250 mg/ml of CFZ-API target concentration for the water miscible solvent screening; and (b) 20 to 50 mg/ml of CFZ-API target concentration for the co-solvent screening; and Aqueous phase: about 2 mg/ml target CFZ-API final concentration.
Since CFZ-API is extremely insoluble in water, various organic water miscible solvents were first screened to dissolve CFZ-API drug substance powder.

[4] = Aqueous phase solvents screening to dissolve CFZ-API to about 2 mg/ml (visual, RP-HPLC after filtration); settings: aqueous solution around pH 3.0 to 3.5 (methane sulfonic acid) with 10,000 MW PVP
From the text: In Step 1 of the flow scheme preparation, non-aqueous solvents consisting of water miscible organic solvents and a co-solvent system were first added to dissolve the CFZ-API solid due its very low water solubility. […] The solution was then filtered by using 0.22 μm PES syringe filter equipped on a NORMJECT® (silicone free) syringe. The resulting filtrate was then checked for CFZ-API solubility recovery and stability on reverse phase high performance liquid chromatography (RP-HPLC). RP-HPLC was used to determine peak degradation as well as CFZ-API recovery through the use of a 3 to 5 point reference standard curve. Peak integration of standards was taken against standard buffer, 50% acetonitrile in water; while peak integration of formulation samples was taken against buffer of the formulation.

**Q.** For `CC(C)C[C@H](NC(=O)[C@H](CCc1ccccc1)NC(=O)CN1CCOCC1)C(=O)N[C@@H](Cc1ccccc1)C(=O)N[C@@H](CC(C)C)C(=O)[C@@]1(C)CO1` [CFZ-API, Carfilzomib], which “Visual observation (FIG. 1)” value [1] is on record?
**A.** The value was “insoluble”.

**Q.** What about the “CFZ-API solubility trend with PVP concentration” value ([2]; PVP 10% to 40%) of the same compound?
**A.** Its value is “higher CFZ-API solubility”.

**Q.** And the “CFZ-API solubility trend with PVP molecular weight” value ([2]; PVP 10,000, 12,000 and 17,000 MW)?
**A.** The value was “more soluble in lower MW PVP”.

**Q.** What about the CFZ-API solubility [3] of the same compound?
**A.** Its CFZ-API solubility is “highly soluble”.

**Q.** And the CFZ-API solubilized [4]?
**A.** Its CFZ-API solubilized is no less than 90%.

From patent US20260048003A1, “STABLE CYCLODEXTRIN FREE CARFILZOMIB FORMULATION” (AMGEN INC., priority 2020, published 2026)
